Test results published in patent publication US8969516B2, “Method of hydrolysis of peptide bond” (priority 2006, dated 2015).

Assay: MALDI-TOF screening of Ni^2+ dependent hydrolysis in a combinatorial peptide library
Assay type: physicochemical
Conditions: Ni^2+ 2 mM, pH 8.2, 10 mM Tris, score=24/tm
How it was run: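 Sublibraries of Ac-Gly-Ala-Ser/Thr-X-His-Z-Lys-Phe-Leu-NH2, randomized at Z and fixed at X, were hydrolyzed at 1 mM total peptide with 2 mM Ni2+ in 10 mM Tris, pH 8.2, at 37 °C or 45 °C. Cleavage was scored visually in MALDI-TOF spectra at 2, 4, 6 and 8 h.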

[1] = CH3CO-Gly-Ala-Ser-X-His-Z-Lys-Phe-Leu-NH2 library, 37° C.
[2] = CH3CO-Gly-Ala-Ser-X-His-Z-Lys-Phe-Leu-NH2 library, 45° C.
[3] = CH3CO-Gly-Ala-Thr-X-His-Z-Lys-Phe-Leu-NH2 library, 37° C.
[4] = CH3CO-Gly-Ala-Thr-X-His-Z-Lys-Phe-Leu-NH2 library, 45° C.

| Substance | hydrolysis score from MALDI-TOF screening [1] | hydrolysis score from MALDI-TOF screening [2] | hydrolysis score from MALDI-TOF screening [3] | hydrolysis score from MALDI-TOF screening [4] |
| --- | --- | --- | --- | --- |
| Ac-GASYHTKFL-NH2 [SYHT] | 0 (a score of 0 if no trace of the product of hydrolysis was seen after 8 hours of incubation) | 0 (a score of 0 if no trace of the product of hydrolysis was seen after 8 hours of incubation) |  |  |
| Ac-GATQHWKFL-NH2 [TQHW] |  |  | 3 (a score of 3 for detection at 8 hours) | 4 (a score of 4 for detection at 6 hours) |
| Ac-GASWHAKFL-NH2 [SWHA] | 0 (a score of 0 if no trace of the product of hydrolysis was seen after 8 hours of incubation) | 3 (a score of 3 for detection at 8 hours) |  |  |
| Ac-GATSHNKFL-NH2 [TSHN] |  |  | 0 (a score of 0 if no trace of the product of hydrolysis was seen after 8 hours of incubation) | 0 (a score of 0 if no trace of the product of hydrolysis was seen after 8 hours of incubation) |
| Ac-GATQHLKFL-NH2 [TQHL] |  |  | 0 (a score of 0 if no trace of the product of hydrolysis was seen after 8 hours of incubation) | 3 (a score of 3 for detection at 8 hours) |
| Ac-GATVHYKFL-NH2 [TVHY] |  |  | 0 (a score of 0 if no trace of the product of hydrolysis was seen after 8 hours of incubation) | 0 (a score of 0 if no trace of the product of hydrolysis was seen after 8 hours of incubation) |
| Ac-GASGHAKFL-NH2 [SGHA] | 0 (a score of 0 if no trace of the product of hydrolysis was seen after 8 hours of incubation) | 0 (a score of 0 if no trace of the product of hydrolysis was seen after 8 hours of incubation) |  |  |
| Ac-GATMHAKFL-NH2 [TMHA] |  |  | 0 (a score of 0 if no trace of the product of hydrolysis was seen after 8 hours of incubation) | 0 (a score of 0 if no trace of the product of hydrolysis was seen after 8 hours of incubation) |
| Ac-GASVHRKFL-NH2 [SVHR] | 3 (a score of 3 for detection at 8 hours) | 3 (a score of 3 for detection at 8 hours) |  |  |
| Ac-GATWHDKFL-NH2 [TWHD] |  |  | 0 (a score of 0 if no trace of the product of hydrolysis was seen after 8 hours of incubation) | 0 (a score of 0 if no trace of the product of hydrolysis was seen after 8 hours of incubation) |
| Ac-GASMHRKFL-NH2 [SMHR] | 4 (a score of 4 for detection at 6 hours) | 6 (a score of 6 for detection at 4 hours) |  |  |
| Ac-GATRHQKFL-NH2 [TRHQ] |  |  | 0 (a score of 0 if no trace of the product of hydrolysis was seen after 8 hours of incubation) | 0 (a score of 0 if no trace of the product of hydrolysis was seen after 8 hours of incubation) |
| Ac-GATRHPKFL-NH2 [TRHP] |  |  | 0 (a score of 0 if no trace of the product of hydrolysis was seen after 8 hours of incubation) | 0 (a score of 0 if no trace of the product of hydrolysis was seen after 8 hours of incubation) |
| Ac-GASYHDKFL-NH2 [SYHD] | 0 (a score of 0 if no trace of the product of hydrolysis was seen after 8 hours of incubation) | 0 (a score of 0 if no trace of the product of hydrolysis was seen after 8 hours of incubation) |  |  |
| Ac-GASMHSKFL-NH2 [SMHS] | 0 (a score of 0 if no trace of the product of hydrolysis was seen after 8 hours of incubation) | 3 (a score of 3 for detection at 8 hours) |  |  |
| Ac-GATFHGKFL-NH2 [TFHG] |  |  | 0 (a score of 0 if no trace of the product of hydrolysis was seen after 8 hours of incubation) | 0 (a score of 0 if no trace of the product of hydrolysis was seen after 8 hours of incubation) |
| Ac-GATAHGKFL-NH2 [TAHG] |  |  | 0 (a score of 0 if no trace of the product of hydrolysis was seen after 8 hours of incubation) | 0 (a score of 0 if no trace of the product of hydrolysis was seen after 8 hours of incubation) |

| Substance | hydrolysis score from MALDI-TOF screening [1] | hydrolysis score from MALDI-TOF screening [2] | hydrolysis score from MALDI-TOF screening [3] | hydrolysis score from MALDI-TOF screening [4] |
| --- | --- | --- | --- | --- |
| Ac-GASSHYKFL-NH2 [SSHY] | 3 (a score of 3 for detection at 8 hours) | 3 (a score of 3 for detection at 8 hours) |  |  |
| Ac-GATWHAKFL-NH2 [TWHA] |  |  | 0 (a score of 0 if no trace of the product of hydrolysis was seen after 8 hours of incubation) | 0 (a score of 0 if no trace of the product of hydrolysis was seen after 8 hours of incubation) |
| Ac-GATHHFKFL-NH2 [THHF] |  |  | 0 (a score of 0 if no trace of the product of hydrolysis was seen after 8 hours of incubation) | 6 (a score of 6 for detection at 4 hours) |
| Ac-GASPHWKFL-NH2 [SPHW] | 0 (a score of 0 if no trace of the product of hydrolysis was seen after 8 hours of incubation) | 0 (a score of 0 if no trace of the product of hydrolysis was seen after 8 hours of incubation) |  |  |
| Ac-GASLHPKFL-NH2 [SLHP] | 0 (a score of 0 if no trace of the product of hydrolysis was seen after 8 hours of incubation) | 0 (a score of 0 if no trace of the product of hydrolysis was seen after 8 hours of incubation) |  |  |
| Ac-GATWHGKFL-NH2 [TWHG] |  |  | 0 (a score of 0 if no trace of the product of hydrolysis was seen after 8 hours of incubation) | 0 (a score of 0 if no trace of the product of hydrolysis was seen after 8 hours of incubation) |
| Ac-GATRHSKFL-NH2 [TRHS] |  |  | 0 (a score of 0 if no trace of the product of hydrolysis was seen after 8 hours of incubation) | 0 (a score of 0 if no trace of the product of hydrolysis was seen after 8 hours of incubation) |
| Ac-GASKHEKFL-NH2 [SKHE] | 0 (a score of 0 if no trace of the product of hydrolysis was seen after 8 hours of incubation) | 3 (a score of 3 for detection at 8 hours) |  |  |
| Ac-GASIHYKFL-NH2 [SIHY] | 0 (a score of 0 if no trace of the product of hydrolysis was seen after 8 hours of incubation) | 0 (a score of 0 if no trace of the product of hydrolysis was seen after 8 hours of incubation) |  |  |
| Ac-GATHHEKFL-NH2 [THHE] |  |  | 0 (a score of 0 if no trace of the product of hydrolysis was seen after 8 hours of incubation) | 0 (a score of 0 if no trace of the product of hydrolysis was seen after 8 hours of incubation) |
| Ac-GATVHHKFL-NH2 [TVHH] |  |  | 0 (a score of 0 if no trace of the product of hydrolysis was seen after 8 hours of incubation) | 0 (a score of 0 if no trace of the product of hydrolysis was seen after 8 hours of incubation) |
| Ac-GASAHYKFL-NH2 [SAHY] | 0 (a score of 0 if no trace of the product of hydrolysis was seen after 8 hours of incubation) | 3 (a score of 3 for detection at 8 hours) |  |  |
| Ac-GATIHAKFL-NH2 [TIHA] |  |  | 0 (a score of 0 if no trace of the product of hydrolysis was seen after 8 hours of incubation) | 0 (a score of 0 if no trace of the product of hydrolysis was seen after 8 hours of incubation) |
| Ac-GATRHGKFL-NH2 [TRHG] |  |  | 0 (a score of 0 if no trace of the product of hydrolysis was seen after 8 hours of incubation) | 0 (a score of 0 if no trace of the product of hydrolysis was seen after 8 hours of incubation) |
| Ac-GATTHFKFL-NH2 [TTHF] |  |  | 0 (a score of 0 if no trace of the product of hydrolysis was seen after 8 hours of incubation) | 0 (a score of 0 if no trace of the product of hydrolysis was seen after 8 hours of incubation) |
| Ac-GASLHKKFL-NH2 [SLHK] | 3 (a score of 3 for detection at 8 hours) | 4 (a score of 4 for detection at 6 hours) |  |  |
| Ac-GATLHNKFL-NH2 [TLHN] |  |  | 0 (a score of 0 if no trace of the product of hydrolysis was seen after 8 hours of incubation) | 0 (a score of 0 if no trace of the product of hydrolysis was seen after 8 hours of incubation) |
